From US6043248A, “Alpha-substituted pyrimidine-thioalkyl and alkylether compounds as inhibitors of viral reverse transcriptase” (priority 1997, dated 2000)
Where a name gives a salt, the structure may show the parent alone. Read-outs that look alike come from different tables or passages of the source.

Legend:
[1] = target: T1, P236L viral reverse transcriptase (Human immunodeficiency virus type 1 group M subtype B, UniProt P04585, P823L); assay: inhibition of viral reverse transcriptase (P236L), cell free assay; assay type: biochemical; conditions: 30 minutes at 37° C.
T1 construct: P236L viral reverse transcriptase is obtained by PNAS 90: 4713-4717 (1993); made in house
From the text: (§1) The utility of the pyrimidine-thioalkyl and alkylether anti-AIDS compounds of Formula IA of this invention can be determined by their ability to inhibit viral reverse transcriptase, an enzyme essential for human immunodeficiency virus replication. This enzyme has characteristics which differentiate it from other known cellular polymerases and it is a unique enzyme which is not found in uninfected cells. Viral reverse transcriptase (Wild Type) is found in extracts from bacterial clones prepared according to the procedure described in AIDS Virus Reverse Transcriptase defined by high level expression in Escherichia coli, EMBO J. 6:3133-3137 (1987). P236L viral reverse transcriptase is obtained by PNAS 90: 4713-4717 (1993). Inhibition of this enzyme is determined in a cell free assay which measures the level of radioactive precursors incorporated into DNA. Extracts prepared according to the procedure of Science, 1125-1129 (1981) are incubated in a mixture of inhibitor, 20 mM dithiothreitol, 60 mM sodium chloride, 0.05% NP-40, 10 mM magnesium chloride, 50 mM Tris pH 8.3, 10 μM [^35 S]-labeled deoxynuleoside-5'-triphosphate, 10 μg/ml RNA template (poly rC or poly rG) and 5 μg/ml DNA primer (oligo dG or oligo dT) for 30 minutes at 37° C. Incorporation of radio-labeled percursor is determined by spotting aliquots of the reaction mixture on DE81 paper, washing the papers to remove unincorporated percursor, drying and determining counts. The results (IC50 means the concentration, in μM of drug, required to inhibit the reverse transcriptase activity (P236L and Wild Type) to the extent of 50%) of various assay(s) are combined and reported as % inhibition and/or IC50 (calculated) in Table I (P236L) and Table II (Wild Type).

[2] = target: T2, viral reverse transcriptase (Wild Type) (Human immunodeficiency virus type 1 group M subtype B, UniProt P04585); assay: inhibition of viral reverse transcriptase (Wild Type), cell free assay; assay type: biochemical; conditions: for IC50: read-out: IC50 (Table II, Wild Type)
T2 construct: Viral reverse transcriptase (Wild Type) is found in extracts from bacterial clones; made in house; host or cells: Escherichia coli
From the text: as §1

[3] = read-out: IC50 (Table I, P236L)

Row | Molecule | inhibition at 1 µM [2] [%] | IC50 [1, 3] [nM] | other results
1 | CC(Sc1nc(N)cc(Cl)n1)c1cc2c(cn1)OCC2(C)C (centres unmarked) [Example 248, 4-Amino-6-chloro-2-(1-(3,3-dimethyl-2,3-dihydrofuro[2,3c]pyridine-5-yl)ethyl)thio-pyrimidine] |  |  | IC50 ([1]; IC50 (Table I, P236L)): 18 nM; IC50 ([2]; 30 minutes at 37° C.): 72 nM
2 | CCN(C)C(=O)/C=C/CSc1nc(N)cc(Cl)n1 [Example 203, (E)-N-ethyl-N-methyl-4-[(4-amino-6-chloro-2-pyrimidinyl)thio]-2-butenamide] | 96 |  | 
3 | Cc1cc2cc(C(C)Sc3nc(N)cc(Cl)n3)nc(Cl)c2o1 (centres unmarked) [Example 240, 4-Amino-6-chloro-2-(1-(7-chloro-2-methylfuro[2,3c]pyridin-5-yl)ethyl)thio-pyrimidine] |  |  | IC50 ([1]; IC50 (Table I, P236L)): 116 nM; IC50 ([2]; 30 minutes at 37° C.): 381 nM
4 | CCN(CC)Cc1ccnc(C(C)Sc2nc(N)cc(Cl)n2)c1 (centres unmarked) [Example 228] |  |  | inhibition at 10 µM [2]: 84%
5 | CCCN(CCC)C(=O)/C=C/CSc1nc(N)cc(Cl)n1 [Example 202, (E)-N,N-Dipropyl-4-[(4-amino-6-chloro-2-pyrimidinyl)thio]-2-butenamide] | 62 |  | 
6 | CC(Sc1nc(N)c(Br)c(Cl)n1)c1cc2ccccc2cn1 (centres unmarked) [Example 231, 4-Amino-5-bromo-6-chloro-2-(1-(3-isoquinolyl)ethyl)thio-pyrimidine] | 78 |  | 
7 | CN(C)C(=O)/C=C/CSc1nc(N)cc(Cl)n1 [Example 204, (E)-N,N-Dimethyl-4-[(4-amino-6-chloro-2-pyrimidinyl)thio]-2-butenamide] | 78 |  | 
8 | Cc1ccnc(C(C#N)Sc2nc(N)cc(Cl)n2)c1 (centres unmarked) [Example 217, 4-Amino-6-chloro-2-(1-(4-methyl-2-pyridyl)-1-cyanomethyl)thio-pyrimidine] | 58 |  | 
9 | Cc1ccnc(C(C)(C)Sc2nc(N)cc(Cl)n2)c1 [Example 213] | 72 |  | 
10 | CCc1coc2c(Cl)nc(C(C)Sc3nc(N)cc(Cl)n3)cc12 (centres unmarked) [Example 251, 4-Amino-6-chloro-2-(1-(7-chloro-3-ethylfuro-[2,3c]pyridine-5yl)ethyl)thio-pyrimidine] |  |  | IC50 ([2]; 30 minutes at 37° C.): 144 nM
11 | CC(=O)c1ccnc(C(C)Sc2nc(N)cc(Cl)n2)c1 (centres unmarked) [Example 219, 4-Amino-6-chloro-2-(1-(4-acetyl-2-pyridyl)ethyl)thio-pyrimidine] | 84 |  | 
12 | Cc1ccnc(C(Sc2nc(N)cc(Cl)n2)C2CC2)c1 (centres unmarked) [Example 226, 4-Amino-6-chloro-2-(1-(4-methyl-2-pyridyl)-1-cyclopropyl-methyl)thio-pyrimidine mesylate] |  |  | inhibition at 50 µM [2]: 79%
13 | CCC(Sc1nc(N)cc(Cl)n1)c1cc(C)ccn1 (centres unmarked) [Example 218, 4-Amino-6-chloro-2-(1-(4-methyl-2-pyridyl)propyl)thio-pyrimidine] | 84 |  | 
14 | C=CCN(C)C(=O)/C=C/CSc1nc(N)cc(Cl)n1 [Example 201, (E)-N-allyl-N-methyl-4-[(4-amino-6-chloro-2-pyrimidinyl)thio]-2-butenamide] | 80 |  | 
15 | CC(Sc1nc(N)cc(Cl)n1)c1cc2c(c(Cl)n1)OCC2(C)C (centres unmarked) [Example 250, 4-Amino-6-chloro-2-(1-(7-chloro-3,3-dimethyl-2,3-dihydrofuro[2,3c]pyridine-5-yl)ethyl)thio-pyrimidine] |  |  | IC50 ([2]; 30 minutes at 37° C.): 153 nM
16 | CC(Sc1nc(N)cc(Cl)n1)c1ccc2ccccc2c1 (centres unmarked) [Example 229, 4-Amino-6-chloro-2-(1-(2-naphthalenyl)ethyl)thio-pyrimidine] |  |  | inhibition at 10 µM [2]: 90%
17 | CC(C)(Sc1nc(N)cc(Cl)n1)c1ccccn1 [Example 212, 4-Amino-6-chloro-2-(1-(2-pyridyl)-1-methylethyl)thio-pyrimidine] |  |  | inhibition at 10 µM [2]: 57%
18 | Nc1cc(Cl)nc(SC/C=C/C(=O)N2CCCCC2)n1 [Example 197, (E)-1-[4-[(4-amino-6-chloro-2-pyrimidinyl)thio]-1-oxo-2-butenyl]piperidine] |  |  | inhibition at 10 µM [2]: 83%
19 | Nc1cc(Cl)nc(SCc2cnc3occc3c2)n1 [Example 304, 4-amino-6-chloro-2-(furo[2,3-b]pyridin-5-yl-methylthio)-pyrimidine] | 94 |  | 
20 | COC(=O)/C=C(\C)C(C)Sc1nc(N)cc(Cl)n1 (centres unmarked) [Example 209, (E)-4-[(4-Amino-6-chloro-2-pyrimidinyl)thio]-3-methyl-2-pentenoic acid methyl ester] |  |  | inhibition at 10 µM [2]: 67%
21 | Nc1cc(Cl)nc(SCc2cc3c(cc2Cl)OCO3)n1 [Example 62, 4-amino-6-chloro-2-(6-chloro-5-piperonylmethylthio)-pyrimidine] |  | 20 | 

Row | Molecule | inhibition at 1 µM [2] [%] | IC50 [1, 3] [nM] | other results
22 | CC(Sc1nc(N)cc(Cl)n1)c1nccc2ccccc12 (centres unmarked) [Example 232, 4-Amino-6-chloro-2-(1-(1-isoquinolyl)ethyl)thio-pyrimidine] | 90 |  | 
23 | Cc1cc(CSc2nc(N)cc(Cl)n2)no1 [Example 174, 4-Amino-6-chloro-2-[(5-methylisoxazol-3-ylmethyl)thio]pyrimidine] |  | 500 | 
24 | Cc1cccc(CSc2nccc(N)n2)c1 [Example 96, 4-amino-2-(3-methylphenylmethylthio)-pyrimidine] |  | 50000 | 
25 | CC(C)Cc1ccnc(CSc2nc(N)cc(Cl)n2)c1 [Example 124, 4-amino-6-chloro-2-[2-(4-(2-methylpropyl))pyridylmethylthio]-pyrimidine] |  | 40000 | 
26 | CC(Sc1nc(N)cc(Cl)n1)c1nccc2c1CCCC2 (centres unmarked) [Example 235, 4-Amino-6-chloro-2-(1-(1-(5,6,7,8-tetrahydroisoquinolyl))-ethyl)thiopyrimidine] | 90 |  | 
27 | CCCCC(Sc1nc(N)cc(Cl)n1)c1cc(C)ccn1 (centres unmarked) [Example 224, 4-Amino-6-chloro-2-(1-(4-methyl-2-pyridyl)pentyl)thio-pyrimidine] |  |  | IC50 (Table II, Wild Type) ([2]; 30 minutes at 37° C.): INACTIVE
28 | Nc1cc(Cl)nc(SCc2cnc3ccccc3n2)n1 [Example 179, 4-Amino-6-chloro-2-[(quinoxalin-2-ylmethyl)thio]pyrimidine] |  | 500 | 
29 | Nc1cc(Cl)nc(SCc2ccc(Cl)s2)n1 [Example 144, 4-Amino-6-chloro-2-[(5-chlorothiophen-2-ylmethyl)thio]pyrimidine] |  | 5000 | 
30 | COc1cccc(CSc2nc(N)cc(Cl)n2)c1 [Example 39, 4-amino-6-chloro-2-(3-methoxyphenylmethylthio)-pyrimidine] |  | 160 | 
31 | Nc1cc(Cl)nc(SC/C=C/C(=O)N2CCCC2)n1 [Example 199, (E)-1-[4-[(4-amino-6-chloro-2-pyrimidinyl)thio]-1-oxo-2-butenyl]pyrrolidine] | 93 |  | 
32 | CC(Sc1nc(N)cc(Cl)n1)c1cc(CN2CCOCC2)ccn1 (centres unmarked) [Example 227, 4-Amino-6-chloro-2-(1-(4-(4-morpholinyl)methyl-2-pyridyl)ethyl)thio-pyrimidine] |  |  | inhibition at 50 µM [2]: 49%
33 | CCC(C)c1ccnc(CSc2nc(N)cc(Cl)n2)c1 (centres unmarked) [Example 145, 4-amino-6-chloro-2-[2-(4-(2-butyl))pyridylmethylthio]-pyrimidine] |  | 10 | 
34 | Nc1cc(Cl)nc(SCc2ccc(Cl)cc2Cl)n1 [Example 51, 4-amino-6-chloro-2-(2,4-dichlorophenylmethylthio)-pyrimidine] |  | 1000 | 
35 | CC(C)c1coc2cnc(C(C)Sc3nc(N)cc(Cl)n3)cc12 (centres unmarked) [Example 252, 4-Amino-6-chloro-2-(1-(3-(1-methylethyl)furo[2,3c]-pyridin-5-yl)ethyl)thio-pyrimidine] |  |  | IC50 ([2]; 30 minutes at 37° C.): 175 nM
36 | Cc1cc(CSc2nc(N)cc(Cl)n2)nc(N(C)C)c1 [Example 154, 4-amino-6-chloro-2-[2-(6-dimethylamino-4-methyl)pyridylmethylthio]-pyrimidine] |  | 50 | 
37 | Nc1ccnc(SCc2ccc3ccccc3c2)n1 [Example 98, 4-amino-2-(2-naphthylmethylthio)-pyrimidine] |  | 5000 | 
38 | CC(Sc1nc(N)c(Br)c(Cl)n1)c1nccc2c1CCCC2 (centres unmarked) [Example 236, 4-Amino-5-bromo-6-chloro-2-(1-(1-(5,6,7,8-tetrahydroisoquinolyl))ethyl)thio-pyrimidine] | 58 |  | 
39 | Nc1cc(Cl)nc(SCc2cccc[n+]2[O-])n1 [Example 147, 2-[2-(4-amino-6-chloro)pyrimidinylthiomethyl]-pyridine-1-oxide] |  | 5000 | 
40 | Nc1cc(Cl)nc(SCc2cc3ccccc3o2)n1 [Example 153, 4-Amino-6-chloro-2-[(benzofuran-2-ylmethyl)thio]pyrimidine] |  | 10000 | 
41 | 4-Amino-6-chloro-2-[[(5-chloroimidazo[1,2-a]pyridin-2-yl)methyl]thio]-pyrimidine [Example 172] |  | 50000 | 
42 | CCOC(=O)c1cc(N)nc(SCc2ccc3ccccc3c2)n1 [Example 305, 6-amino-2-(2-naphthylmethylthio)-pyrimidine-4-carboxylic acid ethyl ester] |  |  | inhibition at 50 µM [2]: 21%
